Reference: PubChem BioAssay (NCI)
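Five concentrations, 48 hours, 96-well plates. GI50 = concentration required for 50% inhibition of growth. TGI: concentration producing complete growth inhibition.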

How the values were obtained:
Assay in all cases: NCI-60 cell line screen, 48 h
786-0 renal = system: 786-0 renal
A498 renal = system: A498 renal
A549 NSCLC = system: A549 NSCLC
ACHN renal = system: ACHN renal
BT-549 breast = system: BT-549 breast
CAKI-1 renal = system: CAKI-1 renal
CCRF-CEM leukemia = system: CCRF-CEM leukemia
COLO 205 colon = system: COLO 205 colon
DU-145 prostate = system: DU-145 prostate
EKVX NSCLC = system: EKVX NSCLC
HCC-2998 colon = system: HCC-2998 colon
HCT-116 colon = system: HCT-116 colon
HCT-15 colon = system: HCT-15 colon
HL-60(TB) leukemia = system: HL-60(TB) leukemia
HOP-62 NSCLC = system: HOP-62 NSCLC
HOP-92 NSCLC = system: HOP-92 NSCLC
HS 578T breast = system: HS 578T breast
HT29 colon = system: HT29 colon
IGROV1 ovarian = system: IGROV1 ovarian
K-562 leukemia = system: K-562 leukemia
KM12 colon = system: KM12 colon
LOX IMVI melanoma = system: LOX IMVI melanoma
MALME-3M melanoma = system: MALME-3M melanoma
MCF7 breast = system: MCF7 breast
MDA-MB-231 breast = system: MDA-MB-231 breast
MDA-MB-435 = system: MDA-MB-435
MOLT-4 leukemia = system: MOLT-4 leukemia
NCI-H226 lung = system: NCI-H226 lung
NCI-H23 lung = system: NCI-H23 lung
NCI-H460 lung = system: NCI-H460 lung
NCI/ADR-RES ovarian = system: NCI/ADR-RES ovarian
OVCAR-3 ovarian = system: OVCAR-3 ovarian
OVCAR-4 ovarian = system: OVCAR-4 ovarian
OVCAR-5 ovarian = system: OVCAR-5 ovarian
OVCAR-8 ovarian = system: OVCAR-8 ovarian
PC-3 prostate = system: PC-3 prostate
RPMI-8226 leukemia = system: RPMI-8226 leukemia
SF-268 CNS = system: SF-268 CNS
SF-295 CNS = system: SF-295 CNS
SF-539 CNS = system: SF-539 CNS
SK-MEL-2 melanoma = system: SK-MEL-2 melanoma
SK-MEL-28 melanoma = system: SK-MEL-28 melanoma
SK-MEL-5 melanoma = system: SK-MEL-5 melanoma
SK-OV-3 ovarian = system: SK-OV-3 ovarian
SN12C renal = system: SN12C renal
SNB-19 CNS = system: SNB-19 CNS
SNB-75 CNS = system: SNB-75 CNS
SR leukemia = system: SR leukemia
SW-620 colon = system: SW-620 colon
T-47D breast = system: T-47D breast
TK-10 renal = system: TK-10 renal
U251 CNS = system: U251 CNS
UACC-257 melanoma = system: UACC-257 melanoma
UACC-62 melanoma = system: UACC-62 melanoma
UO-31 renal = system: UO-31 renal
M14 melanoma = system: M14 melanoma
NCI-H522 lung = system: NCI-H522 lung
RXF 393 renal = system: RXF 393 renal

With `COc1cc2nc3sc(C(=O)Nc4ccc(C(=O)OC(C)C)cc4)c(C(=O)Nc4ccc(Cl)cc4C)n3c(=O)c2cc1OC` the GI50 (786-0 renal) was 5.17 µM, the TGI (786-0 renal) was 28 µM and the GI50 (A498 renal) was 4.69 µM. For the same compound, the TGI (A498 renal) was 26.3 µM, the GI50 (A549 NSCLC) was 0.824 µM and the TGI (A549 NSCLC) was greater than 100 µM. For the same compound, the GI50 (ACHN renal) was 23.8 µM, the TGI (ACHN renal) was greater than 100 µM and the GI50 (BT-549 breast) was 1.67 µM. The TGI (BT-549 breast) was 20 µM, the GI50 (CAKI-1 renal) was 26.1 µM and the TGI (CAKI-1 renal) was greater than 100 µM. The GI50 (CCRF-CEM leukemia) was 4.66 µM, the TGI (CCRF-CEM leukemia) was 30.2 µM and the GI50 (COLO 205 colon) was 7.02 µM. It also gave a TGI (COLO 205 colon) of 51.9 µM, a GI50 (DU-145 prostate) of 1.25 µM and a TGI (DU-145 prostate) of 11.4 µM. The GI50 (EKVX NSCLC) was 22.8 µM, the TGI (EKVX NSCLC) was greater than 100 µM and the GI50 (HCC-2998 colon) was 9.5 µM. It also gave a TGI (HCC-2998 colon) greater than 100 µM, a GI50 (HCT-116 colon) of 11.3 µM and a TGI (HCT-116 colon) greater than 100 µM. For the same compound, the GI50 (HCT-15 colon) was 17.3 µM, the TGI (HCT-15 colon) was greater than 100 µM and the GI50 (HL-60(TB) leukemia) was 7.59 µM. For the same compound, the TGI (HL-60(TB) leukemia) was 35.2 µM, the GI50 (HOP-62 NSCLC) was 18.7 µM and the TGI (HOP-62 NSCLC) was 52.2 µM. It also gave a GI50 (HOP-92 NSCLC) of 10.7 µM, a TGI (HOP-92 NSCLC) of 30.6 µM and a GI50 (HS 578T breast) of 1.6 µM. It also gave a TGI (HS 578T breast) of 7.7 µM, a GI50 (HT29 colon) of 3.18 µM and a TGI (HT29 colon) greater than 100 µM. It also gave a GI50 (IGROV1 ovarian) of 0.69 µM, a TGI (IGROV1 ovarian) of 17.8 µM and a GI50 (K-562 leukemia) of 5.29 µM. For the same compound, the TGI (K-562 leukemia) was greater than 100 µM, the GI50 (KM12 colon) was 1.29 µM and the TGI (KM12 colon) was 13.3 µM. For the same compound, the GI50 (LOX IMVI melanoma) was 11.1 µM, the TGI (LOX IMVI melanoma) was 34.4 µM and the GI50 (MALME-3M melanoma) was 0.0691 µM. It also gave a TGI (MALME-3M melanoma) of 2.44 µM, a GI50 (MCF7 breast) of 14.1 µM and a TGI (MCF7 breast) greater than 100 µM. The GI50 (MDA-MB-231 breast) was 11.2 µM, the TGI (MDA-MB-231 breast) was 38.4 µM and the GI50 (MDA-MB-435) was 9.11 µM. It also gave a TGI (MDA-MB-435) greater than 100 µM, a GI50 (MOLT-4 leukemia) of 2.87 µM and a TGI (MOLT-4 leukemia) of 18.9 µM. The GI50 (NCI-H226 lung) was 16.6 µM, the TGI (NCI-H226 lung) was 43.4 µM and the GI50 (NCI-H23 lung) was 13.6 µM. The TGI (NCI-H23 lung) was 40.5 µM, the GI50 (NCI-H460 lung) was 3.05 µM and the TGI (NCI-H460 lung) was greater than 100 µM. It also gave a GI50 (NCI/ADR-RES ovarian) of 12.4 µM, a TGI (NCI/ADR-RES ovarian) greater than 100 µM and a GI50 (OVCAR-3 ovarian) of 2.66 µM. For the same compound, the TGI (OVCAR-3 ovarian) was 10.6 µM, the GI50 (OVCAR-4 ovarian) was 11.2 µM and the TGI (OVCAR-4 ovarian) was greater than 100 µM. For the same compound, the GI50 (OVCAR-5 ovarian) was 17.4 µM, the TGI (OVCAR-5 ovarian) was 50.2 µM and the GI50 (OVCAR-8 ovarian) was 12.6 µM. It also gave a TGI (OVCAR-8 ovarian) greater than 100 µM, a GI50 (PC-3 prostate) of 18.5 µM and a TGI (PC-3 prostate) greater than 100 µM. It also gave a GI50 (RPMI-8226 leukemia) of 16 µM, a TGI (RPMI-8226 leukemia) of 78.6 µM and a GI50 (SF-268 CNS) of 9.45 µM. The TGI (SF-268 CNS) was 43.3 µM, the GI50 (SF-295 CNS) was 11.2 µM and the TGI (SF-295 CNS) was 29 µM. For the same compound, the GI50 (SF-539 CNS) was 23.2 µM, the TGI (SF-539 CNS) was 80.8 µM and the GI50 (SK-MEL-2 melanoma) was greater than 100 µM. The TGI (SK-MEL-2 melanoma) was greater than 100 µM, the GI50 (SK-MEL-28 melanoma) was 46.2 µM and the TGI (SK-MEL-28 melanoma) was greater than 100 µM. It also gave a GI50 (SK-MEL-5 melanoma) of 6.08 µM, a TGI (SK-MEL-5 melanoma) greater than 100 µM and a GI50 (SK-OV-3 ovarian) of 23.3 µM. The TGI (SK-OV-3 ovarian) was 70 µM, the GI50 (SN12C renal) was 22.8 µM and the TGI (SN12C renal) was 71.1 µM. It also gave a GI50 (SNB-19 CNS) of 28 µM, a TGI (SNB-19 CNS) of 95.3 µM and a GI50 (SNB-75 CNS) of 10.2 µM. For the same compound, the TGI (SNB-75 CNS) was 27.8 µM, the GI50 (SR leukemia) was 3.05 µM and the TGI (SR leukemia) was 14.1 µM. For the same compound, the GI50 (SW-620 colon) was 1.88 µM, the TGI (SW-620 colon) was 25 µM and the GI50 (T-47D breast) was 5.59 µM. For the same compound, the TGI (T-47D breast) was 54.6 µM, the GI50 (TK-10 renal) was 2.45 µM and the TGI (TK-10 renal) was 12.7 µM. For the same compound, the GI50 (U251 CNS) was 5.14 µM, the TGI (U251 CNS) was 18.4 µM and the GI50 (UACC-257 melanoma) was 18.4 µM. The TGI (UACC-257 melanoma) was 93.2 µM, the GI50 (UACC-62 melanoma) was 6.8 µM and the TGI (UACC-62 melanoma) was 91.8 µM. It also gave a GI50 (UO-31 renal) of 25.7 µM and a TGI (UO-31 renal) greater than 100 µM.

In the case of `COc1cc(O)cc(/C=C/c2ccc(O)cc2)c1`, the TGI (786-0 renal) is reported as greater than 100 µM, the TGI (A498 renal) is reported as 94.3 µM and the TGI (A549 NSCLC) is reported as greater than 100 µM. It also gave a TGI (ACHN renal) of 31.2 µM, a TGI (BT-549 breast) of 39.6 µM and a TGI (CAKI-1 renal) of 78.2 µM. It also gave a TGI (COLO 205 colon) greater than 100 µM, a TGI (DU-145 prostate) greater than 100 µM and a TGI (EKVX NSCLC) of 94.1 µM. The TGI (HCT-116 colon) was greater than 100 µM, the TGI (HCT-15 colon) was 29.9 µM and the TGI (HL-60(TB) leukemia) was greater than 100 µM. For the same compound, the TGI (HOP-62 NSCLC) was greater than 100 µM, the TGI (HOP-92 NSCLC) was 91.9 µM and the TGI (HS 578T breast) was greater than 100 µM. It also gave a TGI (HT29 colon) greater than 100 µM, a TGI (IGROV1 ovarian) greater than 100 µM and a TGI (K-562 leukemia) of 98.2 µM. For the same compound, the TGI (KM12 colon) was 93.7 µM, the TGI (M14 melanoma) was greater than 100 µM and the TGI (MALME-3M melanoma) was greater than 100 µM. It also gave a TGI (MCF7 breast) greater than 100 µM, a TGI (MDA-MB-231 breast) of 47.9 µM and a TGI (MDA-MB-435) greater than 100 µM. The TGI (MOLT-4 leukemia) was greater than 100 µM, the TGI (NCI-H226 lung) was 63.1 µM and the TGI (NCI-H23 lung) was 96.1 µM. The TGI (NCI-H460 lung) was greater than 100 µM, the TGI (NCI-H522 lung) was greater than 100 µM and the TGI (NCI/ADR-RES ovarian) was greater than 100 µM. For the same compound, the TGI (OVCAR-3 ovarian) was greater than 100 µM, the TGI (OVCAR-4 ovarian) was greater than 100 µM and the TGI (OVCAR-5 ovarian) was greater than 100 µM. It also gave a TGI (OVCAR-8 ovarian) greater than 100 µM, a TGI (PC-3 prostate) greater than 100 µM and a TGI (RPMI-8226 leukemia) of 25.7 µM. The TGI (RXF 393 renal) was greater than 100 µM, the TGI (SF-268 CNS) was greater than 100 µM and the TGI (SF-295 CNS) was 84.3 µM. For the same compound, the TGI (SF-539 CNS) was greater than 100 µM, the TGI (SK-MEL-2 melanoma) was greater than 100 µM and the TGI (SK-MEL-28 melanoma) was greater than 100 µM. It also gave a TGI (SK-MEL-5 melanoma) greater than 100 µM, a TGI (SK-OV-3 ovarian) greater than 100 µM and a TGI (SN12C renal) of 77.8 µM. It also gave a TGI (SNB-19 CNS) greater than 100 µM, a TGI (SNB-75 CNS) greater than 100 µM and a TGI (SR leukemia) greater than 100 µM. The TGI (SW-620 colon) was greater than 100 µM, the TGI (T-47D breast) was greater than 100 µM and the TGI (TK-10 renal) was 93.6 µM. It also gave a TGI (U251 CNS) of 81.4 µM, a TGI (UACC-257 melanoma) greater than 100 µM and a TGI (UACC-62 melanoma) of 60.5 µM. For the same compound, the TGI (UO-31 renal) was greater than 100 µM.
